# Test results as given in patent US20250140406A1, “CLASSIFYING TUMORS AND PREDICTING RESPONSIVENESS” (Oncocyte Corporation, priority 2022, published 2025).
# Assays:
# [1] = system: cancer cell lines classified IM, MSL, M; test: PRISM screen compound sensitivity correlated with IM, MSL and M subtype of cell lines (101 gene signature); type: cell-based; conditions: for TNBCType test: test data set; for IM Corr test: correlation of PRISM compound sensitivity with IM subtype correlation; for M Corr test: correlation of PRISM compound sensitivity with M subtype correlation; for MSL Corr test: correlation of PRISM compound sensitivity with MSL subtype correlation
# [2] = system: cancer cell lines, DetermaIO classes; test: Association of PRISM compound sensitivity with DetermaIO (DTIO) cell line classes; type: cell-based
# [3] = classification of association of compound sensitivity with IM, MSL and M cell line classes
# [4] = association of compound sensitivity with DetermaIO classes, test data set
# [5] = association of compound sensitivity with DetermaIO classes, training data set
# [6] = classification of association of compound sensitivity with IM, MSL and M cell line classes, training data set
# [7] = correlation of PRISM compound sensitivity with DTIO, test cell set
# [8] = correlation of PRISM compound sensitivity with DTIO, training cell set
# [9] = subtype (IM, MSL or M) with which PRISM compound sensitivity is negatively correlated, training cell set, 101 gene signature
# [10] = subtype (IM, MSL or M) assigned to the compound by negative correlation of PRISM sensitivity with subtype, training cell set (371 cell lines), 101 gene signature
# [11] = correlation of PRISM compound sensitivity with DTIO (DetermaIO), test cell set (188 cell lines)
# [12] = correlation of PRISM compound sensitivity with DTIO (DetermaIO), training cell set (371 cell lines)
# [13] = subtype (IM, MSL or M) with which compound sensitivity is negatively correlated, training cell set (371 cell lines), 101 gene signature
# [14] = correlation of compound sensitivity with DTIO, test set
# [15] = correlation of compound sensitivity with DTIO, training set
SMILES,"DTIO Corr test [2, 4]","DTIO Corr train [2, 5]","DTIO Corr test [2, 7]","DTIO Corr train [2, 8]",IM Corr test ([1]; test cell set (188 cell lines)),M Corr test ([1]; test cell set (188 cell lines)),MSL Corr test ([1]; test cell set (188 cell lines)),other results
C[C@@H](Oc1ccc2[nH]nc(/C=C/c3cnn(CCO)c3)c2c1)c1c(Cl)cncc1Cl [K17203476],−0.0838,−0.1449,–,–,–,–,–,"TNBCType test [1, 3]: MSL"
O=C(NCc1cccc(O)c1)Nc1nc(-c2ccncc2)cs1 [K19333160],0.08122,0.04633,–,–,–,–,–,"TNBCType test [1, 3]: MSL; TNBCType train [1, 6]: MSL"
COc1cc(Nc2ncc(F)c(Nc3ccc4c(n3)NC(=O)C(C)(C)O4)n2)cc(OC)c1OC [K20285085],−0.04153,−0.1076,–,–,–,–,–,"TNBCType test [1, 3]: MSL; TNBCType train [1, 6]: MSL"
COc1cc(-c2ccc(=O)[nH]n2)ccc1OC(F)F [K37561857],0.1699,0.1782,–,–,–,–,–,"TNBCType test [1, 3]: MSL"
COc1cc2nccc(Oc3ccc(NC(=O)NC4CC4)c(Cl)c3)c2cc1C(N)=O [K39974922],0.002695,−0.03256,–,–,–,–,–,"TNBCType train [1, 6]: MSL"
Nc1cc(F)ccc1NC(=O)/C=C/c1cnn(C/C=C/c2ccccc2)c1 [K61688984],−0.02541,0.06912,–,–,–,–,–,"TNBCType train [1, 6]: MSL"
O=C(O)C[C@H](O)C[C@H](O)/C=C/c1c(C2CC2)nc2ccccc2c1-c1ccc(F)cc1 [K75958547],−0.0837,−0.04476,–,–,–,–,–,"TNBCType train [1, 6]: MSL"
COc1cc(OC)cc(N(CCNC(C)C)c2ccc3ncc(-c4cnn(C)c4)nc3c2)c1 [K84868168],0.006092,−0.0744,–,–,–,–,–,"TNBCType train [1, 6]: MSL"
CC[C@H](C)C(=O)O[C@H]1CCC=C2C=C[C@H](C)[C@H](CC[C@@H]3C[C@@H](O)CC(=O)O3)[C@H]21 [K94441233],−0.09323,−0.00119,–,–,–,–,–,"TNBCType test [1, 3]: MSL; TNBCType train [1, 6]: MSL"
COc1cc2nccc(Oc3ccc(NC(=O)Nc4ccc(F)cc4F)c(F)c3)c2cc1OC [KI-8751],–,–,0.03732,0.02512,–,–,–,IM Corr test ([1]; test cell set): 0.1039; M Corr test ([1]; test cell set): −0.09761; MSL Corr test ([1]; test cell set): 0.006054
COc1ccc(/C=C/CCCCOc2ccc(C(=O)c3cccc(C(=O)O)c3)cc2CCC(=O)O)cc1 [LY223982],–,–,−0.04973,0.000351,–,–,–,"IM Corr test ([1]; test cell set): 0.01323; M Corr test ([1]; test cell set): 0.005739; MSL Corr test ([1]; test cell set): −0.01914; TNBCType train [1, 9]: MSL"
O=C1NC(=O)C(c2cnc3ccccn23)=C1c1cn2c3c(cc(F)cc13)CN(C(=O)N1CCCCC1)CC2 [LY2090314],–,–,–,–,−0.01913,0.0417,−0.00714,"TNBCType train [1, 10]: MSL; DTIO Corr test [2, 11]: 0.003829; DTIO Corr train [2, 12]: −0.08353"
C[C@@H](Oc1ccc2[nH]nc(/C=C/c3cnn(CCO)c3)c2c1)c1c(Cl)cncc1Cl [LY2874455],–,–,−0.0838,−0.1449,−0.01933,−0.0758,−0.1021,–
CN(C)C(=O)CCSC(SCCC(=O)O)c1cccc(/C=C/c2ccc3ccc(Cl)cc3n2)c1 (centres unmarked) [MK-571],–,–,−0.00581,0.02432,−0.02535,−0.02967,−0.00401,"TNBCType train [1, 13]: MSL"
C=CCn1c(=O)c2cnc(Nc3ccc(N4CCN(C)CC4)cc3)nc2n1-c1cccc(C(C)(C)O)n1 [MK-1775],–,–,−0.1537,−0.09981,–,–,–,IM Corr test ([1]; test cell set): −0.1878; M Corr test ([1]; test cell set): 0.1655; MSL Corr test ([1]; test cell set): 0.1175
CN(C[C@@H]1COCCO1)S(=O)(=O)Nc1ccc2ccc3ncc(-c4cnn(C)c4)cc3c(=O)c2c1 [MK-2461],–,–,–,–,0.05424,−0.1288,−0.01237,"TNBCType train [1, 10]: MSL; DTIO Corr test [2, 11]: −0.00757; DTIO Corr train [2, 12]: −0.03035"
Cc1ccc(CNc2ncnc3ccc(-c4ccc(CO)o4)cc23)o1 [ML167],–,–,–,–,−0.07672,0.05836,0.01781,"DTIO Corr test [2, 11]: −0.03284; DTIO Corr train [2, 12]: −0.07536"
COc1ccccc1N1CCN(CCCCN2C(=O)CCC2=O)CC1 [MM77],–,–,−0.06165,−0.1241,–,–,–,IM Corr test ([1]; test cell set): −0.07111; M Corr test ([1]; test cell set): 0.07806; MSL Corr test ([1]; test cell set): 0.009431
O=C(NCCCN1CCCCCC1)C(c1ccccc1)C1CCCCC1 (centres unmarked) [MR-16728],–,–,0.04353,−0.1606,−0.01298,0.0251,0.06487,–
O=C(O)/C=C1\CCCc2ccccc2C1O (centres unmarked) [NCS-382],–,–,−0.1705,−0.1343,−0.09394,0.1059,0.05928,–
CCCN(CCC)CCc1ccc(OC)c(OCCc2ccccc2)c1 [NE-100],–,–,0.02588,0.0932,0.02328,−0.05032,−0.07257,"TNBCType train [1, 13]: MSL"
O=Nc1ccc(O)c2ncccc12 [NSC-3852],–,–,−0.00012,0.09356,0.06425,−0.1666,−0.09058,"DTIO Corr test [2, 14]: −0.00012; DTIO Corr train [2, 15]: 0.09356"
CCN(CC)CCCC(C)Nc1nc(C)cc(Nc2ccc3nc(C)cc(N)c3c2)n1 (centres unmarked) [NSC-23766],–,–,0.048,0.0675,−0.00484,−0.06657,0.1332,–
CCCCCCCC/C=C\CCCCCCCC(=O)NCCc1ccc(O)c(O)c1 [OLDA],–,–,–,–,0.0783,−0.1742,−0.06733,"TNBCType train ([1]; subtype (IM, MSL or M) the PRISM compound sensitivity is associated with, training cell set (371 cell lines), 101 gene signature): MSL; DTIO Corr test ([2]; correlation of PRISM compound sensitivity with DTIO, test cell set (188 cell lines)): 0.08614; DTIO Corr train ([2]; correlation of PRISM compound sensitivity with DTIO, training cell set (371 cell lines)): 0.09584"
CCCCCCCC/C=C\CCCCCCCC(=O)N[C@@H](CO)Cc1ccc(O)cc1 [OMDM-2],–,–,0.08864,0.00432,–,–,–,"IM Corr test ([1]; test cell set): 0.07857; M Corr test ([1]; test cell set): −0.1315; MSL Corr test ([1]; test cell set): −0.1068; TNBCType train [1, 9]: MSL"
C#Cc1cccc(Nc2ncnc3cc(OCCOC)c(OCCO)cc23)c1 [OSI-420],–,–,–,–,−0.01776,0.1416,0.3027,"DTIO Corr test [2, 11]: 0.1184; DTIO Corr train [2, 12]: −0.1185"
COc1cc2ncnc(Nc3cccc(Br)c3)c2cc1OC [PD-153035],–,–,−0.03709,−0.1232,–,–,–,"IM Corr test ([1]; test cell set): −0.1533; M Corr test ([1]; test cell set): 0.2905; MSL Corr test ([1]; test cell set): 0.3911; DTIO Corr test [2, 14]: −0.03709; DTIO Corr train [2, 15]: −0.1232"
CC(=O)NCC(=O)N1[C@@H]2CC[C@H]1c1ccc(Nc3ncc(C(F)(F)F)c(NC4CCC4)n3)cc12 [PF-03814735],–,–,–,–,0.01597,−0.07539,−0.04366,"TNBCType train [1, 10]: MSL; DTIO Corr test [2, 11]: −0.05974; DTIO Corr train [2, 12]: −0.01193"
